Assay results as given in patent publication US20220096592A1, “PIC1 VARIANTS WITH IMPROVED SOLUBILITY AND METHODS OF USING THE SAME” (priority 2019, published 2022).
Entries after “also recorded” stand apart in the source; their conditions may differ. Where a SMILES comes first, the peptide text is derived from it. [ ]: non-standard residue; d: D form. Sar = CNCC(=O)O

Columns and labels:
purified C1q = purified C1q (UniProt P02745); test: cell-based or functional assay
[1] = system: antibody-initiated complement activation (ABO incompatible hemolysis)
Experimental: (§1) For hemolytic complement assays, human red blood cells (RBCs) from type AB donors were purified, washed and standardized to 1×10^9 cells/ml, as previously described. Human sera from type 0 donors at a 20% final concentration was combined with […] PIC1 or sarcosine variant peptides, and the volume was brought up to 0.15 ml with GVBS^++ and […] RBCs. For factor B-depleted sera hemolytic assays, a final of 0.005% factor B depleted sera was incubated with […] PIC1 or sarcosine variant peptides with 0.1 ml antibody-sensitized sheep red blood cells (EA) in a final volume of 0.75 ml GVBS^++. The samples were incubated for one hour at 37° C. Then, 1.0 ml of GVBS^−− was added to the factor B-depleted samples to stop the reaction. The samples were spun at 3,000 rpm for 5 minutes. The supernatant was then collected and read at 412 nm. An analysis was performed to represent the values as a percent of the positive control, which consists of human 0 sera and AB red blood cells in GVBS^++ buffer.
(§2) An evaluation of the extent to which the peptide variants inhibit antibody-initiated complement activation was performed. The peptide variants were tested in the following two hemolytic assays: (i) an ABO incompatibility ex vivo assay and (ii) a classical pathway CH50-type assay in factor B-depleted sera.
In the ABO incompatibility hemolytic assay, purified erythrocytes from a ‘type AB+’ donor were incubated with sera from a ‘type 0’ subject containing anti-A and anti-B antibodies; peptides were tested at 1.8 mM.

[2] = system: classical complement pathway; conditions: peptides at 0.4 mM, compared with PA-dPEG24, FIG. 1B
Experimental: as §1, §2
A CH50-type hemolytic assay was then performed. with antibody-sensitized sheep erythrocytes, isolating the classical pathway by utilizing factor B-depleted sera; peptides were tested at 0.4 mM.

C1q = biological target: T1, C1q (Homo sapiens, UniProt P02745+P02746+P02747); test: ELISA-type assay of peptide binding to C1q; conditions: binding curves and half-maximal binding, FIG. 1C, 1D; listed as 18
T1 construct: purchased Complement Technology (Tyler, Tex.)
Experimental: (§3) The plates were washed with PBST (phosphate buffered saline+0.1% Tween) and then blocked with 1% gelatin/PBS for 2 hours at room temperature. After washing, the plates were incubated with PA or sarcosine variant peptides starting at 2.5 mg/ml and then serially diluted in 1% gelatin/PBS for 1 hour at room temperature. After washing, the plates were probed with rabbit anti-PA (developed with Cocalico Biologicals, Reamstown, Pa.) at 1:1000 in 1% gelatin/PBS for 1 hour, room temperature, followed by a goat anti-rabbit HRP (Sigma Aldrich, St Louis, Mo.) at 1:1,000 in 1% gelatin/PBS for 1 hour at room temperature with a washing step in between. Wells were developed using TMB substrate solution, stopped using 1 N H2SO4, and read at 450 nm in a plate reader.
Higher concentrations of DMSO interfere with the detecting reagents resulting in a partial binding curve.

myeloperoxidase (MPO) = biological target: T2, myeloperoxidase (MPO) (Homo sapiens, UniProt P05164); test: MPO peroxidase activity, TMB-based assay; format: biochemical; conditions: dose-response and half-maximal inhibition, FIG. 2A, 2B
T2 construct: purchased Lee BioSolutions (Maryland Heights, Mo.)
Experimental: PIC1 and sarcosine variants were diluted to 25 mg/ml and then serially titrated in a 96 well plate at a volume of 0.02 ml. Myeloperoxidase (MPO) was diluted to 20 μg/ml and 0.02 ml was added to the titrated peptides. TMB (3,3′,5,5′-tetramethylbenzidine) (0.1 ml) was added to each well for 2 minutes, followed by 0.1 ml of 2.5 N H2SO4 for another 2 minutes, and then read on a 96 well plate reader (BioTek) at 450 nm.
In this assay, the variants were tested for MPO inhibition over a range of concentrations. Strong MPO inhibition was found for all variants with the exception of the no-cysteine variant (C9,10).

MPO = biological target: T3, MPO (Homo sapiens, UniProt P05164); test: plate-based assay of binding to solid phased MPO; conditions: binding curves and half-maximal binding, FIG. 2C, 2D
T3 construct: purchased Lee BioSolutions (Maryland Heights, Mo.)
Experimental: as §3
A plate-based assay was performed to test the binding of the peptide variants to solid phased MPO. MPO binding was identified for all variants, except for C9,10.

MPO heme ring = biological target: T4, MPO heme ring (Homo sapiens, UniProt P05164); test: MPO heme ring oxidative degradation (absorbance 300-550 nm); format: biochemical; conditions: peptides at 3 mM, with H2O2, FIG. 3A-3H
T4 construct: purchased Lee BioSolutions (Maryland Heights, Mo.)
Experimental: In a 96 well plate, 0.025 ml of 1.7 mg/ml MPO was combined with 0.00125 ml of 0.5% H2O2 and 3 mM PIC1 or sarcosine variant peptides in a total volume of 0.125 ml PBS and left to incubate at room temperature for 2 minutes. Using a 96 well plate reader, the wells were scanned for absorbance from 300-550 nm to generate curves reflecting the iron state in the MPO heme ring, as previously reported.
The ability of the variants to prevent degradation of the heme ring in the MPO molecule was then evaluated. […] Degradation of the heme ring can be evaluated via spectrometric measurements of absorption of wavelengths from 300 to 550 nm.

[3] = Total Antioxidant Capacity (TAC) assay; conditions: 0.03-0.25 mM, copper reducing equivalents, FIG. 4
Experimental: The TAC (Total Antioxidant Capacity) Assay (Cell Biolabs, Inc. San Diego, Calif.) was used to measure the antioxidant capacity of the sarcosine variants based on the reduction of copper (II) to copper (I). The assay was performed according to the recommended kit protocol.
Antioxidant activity was measured in copper reducing equivalents (CRE). Peptides were tested over a range of concentrations from 0.03-0.25 mM then compared to the standard.

T1 sequence (P02745 23-245): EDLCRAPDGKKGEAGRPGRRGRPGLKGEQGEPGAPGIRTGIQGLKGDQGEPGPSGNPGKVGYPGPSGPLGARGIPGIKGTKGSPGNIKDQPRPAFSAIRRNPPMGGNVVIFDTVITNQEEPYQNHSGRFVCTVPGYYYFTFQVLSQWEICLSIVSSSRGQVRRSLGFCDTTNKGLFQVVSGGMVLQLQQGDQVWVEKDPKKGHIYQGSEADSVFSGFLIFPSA
T1 sequence (P02746 28-253): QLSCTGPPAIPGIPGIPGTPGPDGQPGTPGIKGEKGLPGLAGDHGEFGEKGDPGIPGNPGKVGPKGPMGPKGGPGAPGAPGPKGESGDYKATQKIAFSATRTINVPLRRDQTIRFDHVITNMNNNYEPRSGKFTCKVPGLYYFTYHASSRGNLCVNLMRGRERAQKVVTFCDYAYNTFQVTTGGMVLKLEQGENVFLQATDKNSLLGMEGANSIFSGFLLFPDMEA
T1 sequence (P02747 29-245): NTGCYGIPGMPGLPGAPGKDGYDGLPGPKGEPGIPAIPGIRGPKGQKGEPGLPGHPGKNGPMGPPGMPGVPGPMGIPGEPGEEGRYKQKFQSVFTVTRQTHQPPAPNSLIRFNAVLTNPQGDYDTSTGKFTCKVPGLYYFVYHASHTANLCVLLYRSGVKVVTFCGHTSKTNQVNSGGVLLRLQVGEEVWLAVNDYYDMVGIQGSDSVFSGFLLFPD
T2 sequence (P05164 279-745 limits assumed): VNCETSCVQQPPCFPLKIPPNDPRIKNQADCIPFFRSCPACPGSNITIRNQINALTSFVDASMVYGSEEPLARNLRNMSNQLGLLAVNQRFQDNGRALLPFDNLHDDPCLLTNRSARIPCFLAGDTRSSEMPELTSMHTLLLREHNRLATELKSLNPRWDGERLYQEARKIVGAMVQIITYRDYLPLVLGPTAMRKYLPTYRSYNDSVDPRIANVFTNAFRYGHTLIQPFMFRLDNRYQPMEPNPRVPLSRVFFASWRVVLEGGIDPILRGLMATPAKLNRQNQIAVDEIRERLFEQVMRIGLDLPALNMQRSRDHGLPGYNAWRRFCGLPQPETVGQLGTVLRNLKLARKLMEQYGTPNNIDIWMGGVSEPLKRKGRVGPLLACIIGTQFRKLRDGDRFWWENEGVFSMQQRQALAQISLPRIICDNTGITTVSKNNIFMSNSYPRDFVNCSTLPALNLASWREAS
T2 sequence (P05164 165-273 limits assumed): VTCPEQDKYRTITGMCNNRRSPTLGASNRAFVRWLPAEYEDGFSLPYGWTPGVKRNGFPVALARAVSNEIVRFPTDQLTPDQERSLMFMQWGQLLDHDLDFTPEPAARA
T4 sequence (P05164 279-745 limits assumed): as the sequence (P05164 279-745 limits assumed) above
T4 sequence (P05164 165-273 limits assumed): as the sequence (P05164 165-273 limits assumed) above
T3 sequence (P05164 279-745 limits assumed): as the sequence (P05164 279-745 limits assumed) above
T3 sequence (P05164 165-273 limits assumed): as the sequence (P05164 165-273 limits assumed) above
purified C1q, sequence (P02745 23-245 limits assumed, chain 1 of 3): as the sequence (P02745 23-245) above
purified C1q, sequence (P02746 28-253 limits assumed, chain 2 of 3, further chain): as the sequence (P02746 28-253) above
purified C1q, sequence (P02747 29-245 limits assumed, chain 3 of 3, further chain): as the sequence (P02747 29-245) above

Molecule: PA-I8Sar (H2N-IALILEP(Sar)CCQERAA-OH) (peptide)
- inhibition of classical pathway hemolysis in factor B-depleted sera, more than PA-dPEG24 (peptides at 0.4 mM) (purified C1q): 75%

Molecule: CC[C@H](C)[C@H](N)C(=O)N[C@@H](C)C(=O)N[C@@H](CC(C)C)C(=O)N[C@H](C(=O)N[C@@H](CC(C)C)C(=O)N[C@@H](CCC(=O)O)C(=O)N1CCC[C@H]1C(=O)N(C)CC(=O)N[C@@H](CS)C(=O)N[C@@H](CS)C(=O)N[C@@H](CCC(N)=O)C(=O)N[C@@H](CCC(=O)O)C(=O)N[C@@H](CCCNC(=N)N)C(=O)N[C@@H](C)C(=O)N[C@@H](C)C(=O)O)[C@@H](C)CC [I8, H2N-IALILEP(Sar)CCQERAA-OH] (H-IALILEP[Sar]CCQERAA-OH)
- complement inhibition overall, in words ([1]; both hemolytic complement inhibition assays): superior inhibition of antibody-initiated complement activation and hemolysis compared with PA and other peptide variants
- inhibition of ABO incompatible hemolysis, in words ([1]; peptides at 1.8 mM, compared with PA-dPEG24, FIG. 1A): inhibited ABO incompatible hemolysis to a greater extent than did the PA-dPEG24
- inhibition of classical pathway hemolysis, in words [2]: superior activity
- binding to C1q, in words (C1q): superior binding to C1q as compared with the other peptides; also recorded: slightly superior to that of PA-dPEG24
- MPO inhibition, in words (myeloperoxidase (MPO)): greatest potency among the different variants
- binding to MPO, in words (MPO): superior binding to MPO, as compared with the other sarcosine variants
- inhibition of heme ring degradation, in words (MPO heme ring): near perfect preservation of the heme ring absorption spectrum
- total antioxidant capacity, in words [3]: antioxidant capacity approaching that of PA-dPEG24
